Test results published in PMC6843816, “Angiotensin Converting Enzyme (ACE)-Peptide Interactions: Inhibition Kinetics, In Silico Molecular Docking and Stability Study of Three Novel Peptides Generated from Palm Kernel Cake Proteins” (Biomolecules, 2019).
“And” between values parts separate entries of the source, which are not always exact repeats. Identical values can stand only once. Like-named read-outs stand apart in the source and are kept apart here. Peptide text beside a SMILES is read from it.

Key:
[1] = biological target: T1, angiotensin-converting enzyme (ACE) (Oryctolagus cuniculus, UniProt P12822); test: ACE-inhibitory capacity of peptides with and without pre-incubation with ACE; IC50; assay type: biochemical, rabbit; conditions: for IC50: unit given, not in Table 5, read-out: ACE Inhibition (IC50); for ACE-Inhibitory Capacity (%) Without Pre-Incubation: without pre-incubation with ACE
T1 construct: Angiotensin-I-converting enzyme (rabbit lung); purchased Sigma Chemical Co., (St Louis, MO, USA); host or cells: rabbit lung tissue
T1 sequence (P12822 34-1310): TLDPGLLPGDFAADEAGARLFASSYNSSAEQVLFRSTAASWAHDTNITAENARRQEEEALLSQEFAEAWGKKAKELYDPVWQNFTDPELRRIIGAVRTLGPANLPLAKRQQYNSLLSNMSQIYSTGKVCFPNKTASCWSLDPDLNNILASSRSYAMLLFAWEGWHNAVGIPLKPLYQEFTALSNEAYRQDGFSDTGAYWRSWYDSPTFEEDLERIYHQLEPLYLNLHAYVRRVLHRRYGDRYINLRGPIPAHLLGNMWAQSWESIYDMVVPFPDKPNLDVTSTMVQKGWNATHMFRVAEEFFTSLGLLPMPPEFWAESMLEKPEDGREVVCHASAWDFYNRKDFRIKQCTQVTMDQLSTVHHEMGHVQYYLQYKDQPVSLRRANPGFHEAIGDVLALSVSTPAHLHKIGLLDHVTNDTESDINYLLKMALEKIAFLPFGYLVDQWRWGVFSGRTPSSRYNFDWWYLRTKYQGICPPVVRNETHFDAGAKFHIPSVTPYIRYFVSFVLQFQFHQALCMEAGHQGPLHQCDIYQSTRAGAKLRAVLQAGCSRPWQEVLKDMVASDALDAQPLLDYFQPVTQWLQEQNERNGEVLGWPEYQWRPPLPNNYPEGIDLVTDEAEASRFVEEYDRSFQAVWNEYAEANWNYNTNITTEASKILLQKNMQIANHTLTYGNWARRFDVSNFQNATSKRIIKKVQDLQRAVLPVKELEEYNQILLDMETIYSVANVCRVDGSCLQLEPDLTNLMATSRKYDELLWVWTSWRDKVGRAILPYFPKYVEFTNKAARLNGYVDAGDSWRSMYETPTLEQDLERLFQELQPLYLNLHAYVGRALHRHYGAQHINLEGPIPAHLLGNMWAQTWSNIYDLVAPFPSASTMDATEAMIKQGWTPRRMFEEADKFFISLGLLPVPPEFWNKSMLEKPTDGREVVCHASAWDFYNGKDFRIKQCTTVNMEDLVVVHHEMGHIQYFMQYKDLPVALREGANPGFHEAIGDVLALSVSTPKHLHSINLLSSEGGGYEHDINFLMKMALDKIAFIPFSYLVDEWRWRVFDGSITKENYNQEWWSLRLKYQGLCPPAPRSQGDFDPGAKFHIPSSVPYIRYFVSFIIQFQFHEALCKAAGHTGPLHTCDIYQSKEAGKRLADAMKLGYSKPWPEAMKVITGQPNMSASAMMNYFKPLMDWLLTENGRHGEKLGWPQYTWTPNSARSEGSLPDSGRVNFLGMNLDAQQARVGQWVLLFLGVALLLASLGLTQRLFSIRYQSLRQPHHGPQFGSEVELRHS

[2] = biological target: T1, angiotensin-converting enzyme (ACE); test: Peptide stability study: hydrolysis of peptides by ACE, RP-HPLC; assay type: in vitro ADME, rabbit; conditions: 37 °C, peptide 4 mM; for metabolised at 0.5 h, 2.4 mM / metabolised at 1 h, 2.4 mM / metabolised at 2 h, 2.4 mM / metabolised at 3 h, 2.4 mM: rabbit, isolated angiotensin-converting enzyme (ACE), read-out: Cleavage (%); for metabolised at 1 h, 2.4 mM: incubation with ACE 1 h; for metabolised at 2 h, 2.4 mM: incubation with ACE 2 h
Procedure: Peptide stability study was carried out using the method described by Forghani et al. and Yang, Marczak, Yokoo, Usui and Yoshikawa with modifications. Each peptide solution (225 µL), at a concentration of 4 mM, was incubated with 150 µl of ACE (100 mU/mL) at 37 °C and incubation time of 0, 0.5, 1, 2 and 3 h. Peptide samples were withdrawn at their respective incubation time separately and kept in ice prior to analysis by HPLC. A 20-µL sample was loaded onto a Hypersil GOLD C18 column (4.6 × 250 mm) attached to a LC 20AT apparatus (Shimadzu Co., Kyoto, Japan). The column was conditioned with eluent A (0.1% TFA in DW) and eluted with 100% eluent A from 0 to 10 min. The peptides were eluted with eluent B (0.1% TFA in CH3CN) with a gradient elution of 0–100% for 10–50 min. The absorbance was read at 215 nm.

[3] = biological target: T1, angiotensin-converting enzyme (ACE); test: Kinetics study of ACE inhibition (Michaelis-Menten and Lineweaver-Burk plots, HHL substrate); assay type: biochemical, rabbit; conditions: from plot of 1/Vmax against inhibitor concentration; read-out: Kiu (mM) (enzyme-inhibitor dissociation constant)
Procedure: Mode of enzyme inhibition, maximum initial velocity (Vmax), Michaelis-Menten constant (Km), inhibitory constant (Ki) and catalytic efficiency were determined using Michaeles-Menten and Lineweaver-Burk plots of 1/v versus 1/[S].
Enzyme activity was shown as nmol hippuric acid produced per min of enzymatic reaction. Michaelis-Menten and Lineweaver-Burk plots were created using GRAPHPAD PRISM 6.07 (GraphPad, Software Inc., San Diego, CA, USA) software. Vmax and Km were calculated using the same software. Kiu was calculated from the plot of 1/Vmax against inhibitor concentration at the intercept on the inhibitor concentration axis).

ACE = conditions: read-out: Kiu, cited from earlier work
[4] = peptides generated from Stichopus horrens

IC50 [1] [µM] | ACE-Inhibitory Capacity (%) With Pre-Incubation [1] [%] | ACE-Inhibitory Capacity (%) Without Pre-Incubation [1] [%] | Cleavage (%) ([2]; incubation with ACE 0.5 h) | Cleavage (%) ([2]; incubation with ACE 3 h) | metabolised at 0.5 h, 2.4 mM ([2]; incubation with ACE 0.5 h) [%] | metabolised at 1 h, 2.4 mM [2] [%] | metabolised at 2 h, 2.4 mM [2] [%] | metabolised at 3 h, 2.4 mM ([2]; incubation with ACE 3 h) [%] | Ki [3] [mM] | Compound | Ki (ACE; [4]) [µM] | Ki (ACE; ref Udenigwe, et al. 31) [µM]
239 | 75 ± 2.11 | 70 ± 1.15 | 46 | 97% | 46 ± 1.5 | 65 ± 2.6 | 86 ± 3.1 | 97 ± 3.4 | 3.18 | CC(C)C[C@H](NC(=O)[C@H](CC(C)C)NC(=O)[C@H](C)NC(=O)[C@H](Cc1ccc(O)cc1)NC(=O)[C@H](Cc1c[nH]cn1)NC(=O)CNC(=O)[C@H](C)NC(=O)CNC(=O)[C@H](CCC(=O)O)NC(=O)[C@H](CCC(N)=O)NC(=O)[C@@H](NC(=O)CN)C(C)C)C(=O)O [GVQEGAGHYALL] (H-GVQEGAGHYALL-OH; N-terminus and C-terminus assumed) | – | –
202 | 56 ± 1.34 | 55 ± 1.81 | 43 | 68% | 43 ± 2 | 42 ± 1.6 | 63 ± 3 | 68 ± 3.4 | 2 | C[C@H](NC(=O)[C@@H](N)Cc1c[nH]c2ccccc12)C(=O)N[C@@H](Cc1ccccc1)C(=O)N[C@@H](CO)C(=O)O [WAFS] (H-WAFS-OH; N-terminus and C-terminus assumed) | – | –
– | – | – | – | – | – | – | – | – | – | CRQNTLGHNTQTSIAQ | 210 | –
– | – | – | – | – | – | – | – | – | – | SAAVGSP | 1570 | –
– | – | – | – | – | – | – | – | – | – | VSRHFASYAN | 610 | –
– | – | – | – | – | – | – | – | – | – | WVYY | – | 60

Compound | IC50 [1] [µM] | ACE-Inhibitory Capacity (%) With Pre-Incubation [1] [%] | ACE-Inhibitory Capacity (%) Without Pre-Incubation [1] [%] | Cleavage (%) ([2]; incubation with ACE 0.5 h) | Cleavage (%) ([2]; incubation with ACE 3 h) | metabolised at 0.5 h, 2.4 mM ([2]; incubation with ACE 0.5 h) [%] | metabolised at 1 h, 2.4 mM [2] [%] | metabolised at 2 h, 2.4 mM [2] [%] | metabolised at 3 h, 2.4 mM ([2]; incubation with ACE 3 h) [%] | Ki [3] [mM] | Ki (ACE; [4]) [µM] | Ki (ACE; ref Udenigwe, et al. 31) [µM]
CC(C)C[C@H](NC(=O)[C@H](CC(C)C)NC(=O)[C@H](CC(C)C)NC(=O)[C@@H](N)Cc1ccc(O)cc1)C(=O)N[C@@H](CCCCN)C(=O)O [YLLLK] (H-YLLLK-OH; N-terminus and C-terminus assumed) | 47 | 80 ± 2.04 | 100 ± 2.99 | 91.7 | 94% and 94.3% | 92 ± 2.8 | 93 ± 1.9 | 94 ± 3 | 94 ± 2.7 | – | – | –
